Measured values taken from paper doi:10.1101/2021.02.22.432404v1 (biorxiv, 2021).

Each compound was assayed against T1, E. coli thymidylate kinase (TMPK) (Escherichia coli, UniProt P0A720) (assay: ATPlite luminescence assay, direction of ATP synthesis).
T1 sequence (P0A720 1-213): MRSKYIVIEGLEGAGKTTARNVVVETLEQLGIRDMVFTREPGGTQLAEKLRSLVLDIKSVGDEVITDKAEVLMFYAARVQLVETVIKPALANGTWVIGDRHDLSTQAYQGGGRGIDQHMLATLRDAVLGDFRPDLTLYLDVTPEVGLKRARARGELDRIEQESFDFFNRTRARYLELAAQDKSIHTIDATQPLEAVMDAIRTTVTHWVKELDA
Type: biochemical

Row | IC50 | SMILES
1 | 2500 nM | COc1ccc(C=C2SC(=S)NC2=O)cc1O [compound 2]
2 | 480 nM | COc1cc(C=C2SC(=S)NC2=O)ccc1OC(C)=O [compound 11]
3 | 500 nM | COc1cc(C=C2SC(=S)NC2=O)ccc1O [compound 12]
4 | 250 nM | COc1cc(C=C2SC(=S)NC2=O)cc(OC)c1O [compound 27]

Continued, compound first:

Row | SMILES | IC50
5 | COc1cc(C=C2SC(=S)NC2=O)ccc1OC(C)C [compound 1] | 390 nM
6 | CCOc1ccc(C=C2SC(S)=NC2=O)cc1OC [compound 9] | 410 nM
7 | C=CCOc1cccc(C=C2SC(=S)NC2=O)c1 [compound 13] | 1000 nM
8 | CCOc1cc(C=C2SC(=S)NC2=O)ccc1OC(C)=O [compound 28] | 470 nM
9 | CCOC(=O)COc1ccc(C=C2SC(=S)NC2=O)cc1OC [compound 31] | 680 nM
